Reference: PubChem BioAssay AID1959 (Broad Institute, 2009)
The source made the active and inactive calls.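 Rule for the calls: active = growth-inhibition EC50 no more than tenfold above the top tested dose; inconclusive = flat fit between 30% and 70% inhibition, or unreliable fit; inactive = EC50 more than tenfold above the top tested dose.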

system: E. coli NEB5alpha growth, BacTiter-Glo luminescence, 4 h; assay: antibacterial activity against E. coli NEB5alpha – luminescence, counter-screen for MEX-5/POS-1 RNA-binding inhibitor project, dose response (AID 1959);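 note: pUC19-transformed ampicillin-resistant cells grown in LB with ampicillin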

| SMILES | EC50 |
| --- | --- |
| N#Cc1c(NC(=O)/C=C/C(=O)O)sc2c1CCN(Cc1ccccc1)C2 | > 11 µM (inactive) |
| O=C(CCN1C(=O)/C(=C\C=C\c2ccccc2)SC1=S)Nc1ccc(C(=O)O)cc1 | > 11 µM (inactive) |
| COC(=O)CCCC1=CC2=CC(=O)C(C)(OC(=O)c3cnc4ccccc4n3)C(=O)C2=CO1 (stereo unspecified) | > 11 µM (inactive) |
| COC/C=C/C1=CC2=CC(=O)C(C)(OC(=O)C3CCCC3)C(=O)C2=CO1 (stereo unspecified) | > 11 µM (inactive) |
| CCC(=S)/C=C1\Sc2ccc3ccccc3c2N1CCCS(=O)(=O)O | > 11 µM (inactive) |
| CN(C)C1=NC(=O)/C(=C/c2ccc(-c3ccc(S(N)(=O)=O)cc3)o2)S1 | > 11 µM (inactive) |
| COC(=O)CCCC1=CC2=CC(=O)C(C)(OC(=O)C3CCCC3)C(=O)C2=CO1 (stereo unspecified) | > 11 µM (inactive) |
| Oc1ccc2ccccc2c1C=Nc1ccc(N2CCOCC2)cc1 | > 11 µM (inactive) |
| CCn1c(C)nc2cc(N)ccc21 | > 11 µM (inactive) |
| Oc1ccc(-c2nc(-c3ccc(O)c(O)c3)cs2)cc1 | > 11 µM (inactive) |
| Cc1nnc(N2C(=O)C(O)=C(C(=O)c3ccco3)C2c2ccc(F)cc2)s1 (stereo unspecified) | > 11 µM (inactive) |
| O=C1CSC(=S)N1/N=C/c1ccc(O)c(O)c1O | > 11 µM (inactive) |
| CCCNC(=O)c1ccc2c(=O)c(O)c(-c3cccc(Br)c3)[nH]c2c1 | > 11 µM (inactive) |
| N#CC1=C(N)OC2=C(C(=O)CC(c3ccco3)C2)C1c1ccc(OCc2c(F)cccc2Cl)cc1 (stereo unspecified) | > 11 µM (inactive) |
| CCCCCCCCOc1ccc(C2OC34CCCCC3C(C#N)(C#N)C2(C#N)C(=N)O4)cc1 (stereo unspecified) | > 11 µM (inactive) |
| CC1CN(C2CC(C)(C)NC(C)(C)C2)CCC1=O (stereo unspecified) | > 11 µM (inactive) |
| CCOC(=O)Cn1c2ccc(OC)cc2c2nc3ccccc3nc21 | > 11 µM (inactive) |
| O=C(NC1CC1)C1Nc2ccc(OC(F)(F)F)cc2C2C=CCC12 (stereo unspecified) | > 11 µM (inactive) |
| COc1ccc(/C=C2\SC(=S)N(CCC(=O)NC3CCCC3)C2=O)cc1OC | > 11 µM (inactive) |
| NC(CO)C(=O)NNCc1ccc(O)c(O)c1O (stereo unspecified) | > 11 µM (inactive) |
| Cc1ccc(-c2[nH]c3cc(C(N)=O)ccc3c(=O)c2O)cc1 | > 11 µM (inactive) |
| COc1cc2c3nnc(-c4ccccc4)c-3cn(Cc3ccccc3F)c2cc1OC | > 11 µM (inactive) |
| CN=C1S/C(=C\c2cn(CC(=O)OC)c3ccccc23)C(=O)N1C | > 11 µM (inactive) |
| O=C(/C=C/c1ccco1)NC(=S)Nc1ccc(C(=O)O)cc1 | > 11 µM (inactive) |

| SMILES | EC50 |
| --- | --- |
| Cc1c(N=Cc2c(O)n(Cc3ccccc3)c(=O)[nH]c2=O)c(=O)n(-c2ccccc2)n1C | > 11 µM (inactive) |
| CC1=CC(C#N)(C#N)C(C#N)(C#N)C(c2ccccc2)N1 (stereo unspecified) | > 11 µM (inactive) |
| Cc1ccc(Cl)c2c(N=Nc3ccccc3)c(O)[nH]c12 | > 11 µM (inactive) |
| CC1=CC(C)(C)N2C(=O)C3(C(C#N)=C(N)OC4=C3C(=O)CCC4)c3c(C)c(C)cc1c32 (stereo unspecified) | > 11 µM (inactive) |
| N#Cc1c(-c2ccccc2Cl)c2c([nH]c1=O)-c1ccccc1OC2 | > 11 µM (inactive) |
| O=C(c1cccs1)c1ccc(-c2cccs2)s1 | > 11 µM (inactive) |
| COc1ccc(/C(C)=N/Nc2nc3ccccc3nc2C)cc1OC | > 11 µM (inactive) |
| Cc1nc(S/C(C(=O)O)=C2/C(=O)Nc3ccccc32)n[nH]1 | > 11 µM (inactive) |
| CC1CC=C2C(C#N)=C(N)C(C#N)(C#N)C(c3cccs3)C2C1 (stereo unspecified) | > 11 µM (inactive) |
| Cc1ccc2ccc(C3C(=O)c4ccccc4C3=O)nc2c1 | > 11 µM (inactive) |
| Cc1ccc(NC(=O)/C(C#N)=C/c2ccc(C)s2)c(C)c1 | > 11 µM (inactive) |
| O=C(NCCN1CCOCC1)c1cccn2c(=O)c3c4c(sc3nc12)CCCC4 | > 11 µM (inactive) |
| COc1cc([N+](=O)[O-])cc(/C=N/NC(=O)CC#N)c1O | > 11 µM (inactive) |
| Cc1nnc(N2C(=O)C(O)=C(C(=O)c3ccco3)C2c2cccc3ccccc23)s1 (stereo unspecified) | > 11 µM (inactive) |
| Cc1cc(/C=C2\C(=O)NC(=O)N(c3ccc(Cl)cc3)C2=O)c(C)n1C | > 11 µM (inactive) |
| Cc1cc(C)c2c(c1)NC(c1cc3c(cc1Br)OCO3)C1CC=CC21 (stereo unspecified) | > 11 µM (inactive) |
| COc1ccc(N2C(=O)C(Cl)=C(Nc3ccccc3O)C2=O)cc1 | > 11 µM (inactive) |
| CCC(=O)Nc1cc(C)c(NC(=O)CCc2ccccc2)cn1 | > 11 µM (inactive) |
| O=C1Nc2cc(Cl)cnc2N2CCCC12 (stereo unspecified) | > 11 µM (inactive) |
| O=C(N/N=C/c1cc(Cl)cc([N+](=O)[O-])c1O)c1ccc2c(c1)OCO2 | > 11 µM (inactive) |
| O=C1c2cccc3c(N4CCCCC4)ccc(c23)C(=O)N1CCO | > 11 µM (inactive) |
| CCOn1c(=O)c(-c2cc3ccccc3o2)[n+]([O-])c2ccccc21 | > 11 µM (inactive) |
| CCN(CC)CCN=Cc1c(O)n(CCc2ccccc2)c(=O)[nH]c1=O | > 11 µM (inactive) |
| Cc1noc(/C=C/N(C)C)c1S(=O)(=O)N1CCC(C(=O)O)CC1 | > 11 µM (inactive) |

| SMILES | EC50 |
| --- | --- |
| COc1ccccc1Nc1nc2nonc2nc1N1CCCCC1C (stereo unspecified) | > 11 µM (inactive) |
| COc1ccc(N2C(=O)/C(=C/c3ccc(C)o3)C(=O)NC2=S)c(OC)c1 | > 11 µM (inactive) |
| CC(=O)N1CCN(c2ccc(N=Cc3c(O)n(Cc4ccccc4)c(=O)[nH]c3=O)cc2)CC1 | > 11 µM (inactive) |
| CCOC(=O)c1cc2c(=O)n3ccccc3nc2n(C(C)C)c1=NC(=O)c1ccncc1 | > 11 µM (inactive) |
| COc1ccc(C2C(C#N)=C(N)OC3=C2C(=O)CCC3)c(OC)c1OC (stereo unspecified) | > 11 µM (inactive) |
| COc1ccc(C2=CC3=C(Br)C(=O)C(C)(OC(=O)c4ccco4)C(=O)C3=CO2)cc1 (stereo unspecified) | > 11 µM (inactive) |
| CCOC(=O)c1ccc(-n2c(CCC(=O)O)ccc2-c2ccccc2)cc1 | > 11 µM (inactive) |
| Nc1nonc1C(=O)NCCN=Cc1cc(Cc2ccccc2)cc(Br)c1O | > 11 µM (inactive) |
| O=C1CCCC2=C1Sc1ccc(Cl)cc1N2 | > 11 µM (inactive) |
| COc1ccc(NC(=O)Nc2ccc(OCc3ccccc3)cc2)cn1 | > 11 µM (inactive) |
| NS(=O)(=O)c1ccc(-c2ccc(/C=C3\NC(=S)NC3=O)o2)cc1 | > 11 µM (inactive) |
| O=C1NC(=O)N(c2ccccc2F)C(=O)/C1=C/c1cn(CC(=O)N2CCOCC2)c2ccccc12 | > 11 µM (inactive) |
| COc1cc(C(CC(=O)N2CCCC2)c2c(OC)cc(OC)c3ccc(=O)oc23)cc(OC)c1OC (stereo unspecified) | > 11 µM (inactive) |
| O=CN/N=C/c1c(O)ccc2ccccc12 | > 11 µM (inactive) |
| N#CC1=C(N)C2=C(N3CCCCC3)CCCC2C1(C#N)C#N (stereo unspecified) | > 11 µM (inactive) |
| CC(C)/C=C1\CC/C(=C\c2ccc(N(C)C)cc2)C1=O | > 11 µM (inactive) |
| CCn1c(=N)c(S(=O)(=O)c2ccccc2)cc2c(=O)n3ccccc3nc21 | > 11 µM (inactive) |
| Cc1ccccc1N=C1NC(=O)/C(=C/c2cccn2-c2cccc(C(=O)O)c2)S1 | > 11 µM (inactive) |
| Cc1ccc(N/C=C2/Sc3ccccc3NC2=O)cc1 | > 11 µM (inactive) |
| O=C(O)C1Nc2c(C(=O)N3CCOCC3)cccc2C2C=CCC12 (stereo unspecified) | > 11 µM (inactive) |
| COc1cc(C(c2c(C)[nH][nH]c2=O)c2c(C)[nH][nH]c2=O)cc([N+](=O)[O-])c1O | > 11 µM (inactive) |
| O=C(Nc1ccccc1)c1nn(-c2ccccc2)c(=O)cc1C(F)(F)F | > 11 µM (inactive) |
| CCN(CC)CCN(Cc1cc2ccc(C)c(C)c2[nH]c1=O)C(=S)NCc1ccco1 | > 11 µM (inactive) |
| NS(=O)(=O)c1cc(C(=O)NC2CCSc3ccccc32)ccc1Cl (stereo unspecified) | > 11 µM (inactive) |

| SMILES | EC50 |
| --- | --- |
| Cc1ccc2cc(/C=C3\N=C(c4ccccc4)OC3=O)c(N3CCOCC3)nc2c1 | > 11 µM (inactive) |
| O=C(Nc1ccccc1O)c1cccc(S(=O)(=O)Nc2ccccc2O)c1 | > 11 µM (inactive) |
| Cc1ccc(S(=O)(=O)Nc2ccccc2F)cc1C(=O)NNC(=O)c1ccccc1O | > 11 µM (inactive) |
| COc1cc2c(cc1/C=C1/NC(=O)N(c3ccccc3)C1=O)OCO2 | > 11 µM (inactive) |
| CS/C(=N\S(=O)(=O)c1cccs1)Nc1cccc(Cl)c1C | > 11 µM (inactive) |
| O=C(O)c1cc(-n2cccc2)ccc1N1CCOCC1 | > 11 µM (inactive) |
| CCOc1c(C=C(C#N)C#N)c2ccccc2n1CC | > 11 µM (inactive) |
| Cc1ccc(N2C(=O)/C(=C/c3ccc(CN(CCC#N)S(C)(=O)=O)o3)C(=O)NC2=S)cc1C | > 11 µM (inactive) |
| COc1ccc(C2C(C#N)=C(N)OC3=C2C(=O)CC(C)(C)C3)c(OC)c1OC (stereo unspecified) | > 11 µM (inactive) |
| COc1ccc(CNC(=O)c2cnc3cc(C)ccn3c2=O)cc1 | > 11 µM (inactive) |
| CCOC(=O)C1Nc2c(F)cc(C)cc2C2C=CCC12 (stereo unspecified) | > 11 µM (inactive) |
| O=C1C=CC(=O)C(C2=C3C(=O)N(CCc4ccccc4)CC(=O)N3CCC2)=C1 | > 11 µM (inactive) |
| O=C1c2cccc3c(N4CCCCC4)ccc(c23)C(=O)N1c1ccccn1 | > 11 µM (inactive) |
| Nc1ccc2nc(-c3ccccc3)c(-c3ccccc3)nc2c1 | > 11 µM (inactive) |
| CN1C(=O)/C(=C/c2ccc(-c3ccccc3[N+](=O)[O-])o2)SC1=Nc1ccc(Cl)c(C(=O)O)c1 | > 11 µM (inactive) |
| Oc1ccc(/C=N/N2CCCCC2)c(O)c1O | > 11 µM (inactive) |
| COCCNC(=O)CCC(=O)NNc1nc2ccccc2c2nc(C)nn12 | > 11 µM (inactive) |
| Cc1cc(C(=O)N/N=C/c2ccc(-c3cccc(Cl)c3Cl)o2)n[nH]1 | > 11 µM (inactive) |
| Cc1cc(-c2ccccc2)nc(N/N=C/c2ccc(O)cc2O)n1 | > 11 µM (inactive) |
| COc1ccc(N/C(=C(/C(Cl)=C(Cl)Cl)[N+](=O)[O-])n2nnc3ccccc32)cc1 | > 11 µM (inactive) |
| O=c1[nH]n(-c2ncnc3c2cnn3-c2ccccc2)c(=O)c2ccccc12 | > 11 µM (inactive) |
| CC1(OC(=O)CCc2ccccc2)C(=O)C=C2C=C(c3ccsc3)OC=C2C1=O (stereo unspecified) | > 11 µM (inactive) |
| CC(C)OC(=O)c1nn2c(C(F)(F)F)cc(-c3ccc(Br)o3)nc2c1Br | > 11 µM (inactive) |
| COc1cccc(C(=O)NNc2nc(C)cc(C)n2)c1 | > 11 µM (inactive) |
